Format in all cases: functional
What all share (parameters): scale not given here

Assay [1] concerns Schistosoma mansoni.
The test system of assay [2] is Schistosoma mansoni. The source holds these as a separate data set.
Assay [3] relates to Schistosoma mansoni. This is another data set of the same source.

`CCOC(=O)c1cnc2ccc(CC)cc2c1O`: the Toxicity in assay [1], in assay [2] and in assay [3] was 0 throughout.

`COCCn1c(C)nc2ccccc2c1=O`: the Toxicity in assay [1], in assay [2] and in assay [3] was 0 throughout.

As to `CC(C)CNC(=O)c1c(N)n(CCc2ccccc2F)c2nc3ccccc3nc12`, the Toxicity in assay [1] was 2; in assay [2], 2; in assay [3] it was 0.

For the compound `O=C(Nc1ccc(N2CCCCC2)c(Cl)c1)c1ccc(Br)o1`, the Toxicity in assay [1], in assay [2] and in assay [3] was 0 each time.

Regarding `Oc1c2c(nc3cc(-c4ccccc4)nn13)CCCC2`, the Toxicity in assay [1], in assay [2] and in assay [3] was 0 each time.

Regarding `CCN1CCN(Cc2ccc(NC(=O)c3cc4ccc5cccnc5c4[nH]3)cc2)CC1`, the values for the Toxicity in assay [1], in assay [2] and in assay [3] were 1, 0 and 0, respectively.

For the compound `CCCCCCC(O)(c1ccc(F)cc1)C(CN1CCOCC1)c1ccccc1.Cl` (configuration not stated), the Toxicity in assay [1], in assay [2] and in assay [3] was 0 in each case.

On to `OC(CNC1CCCCC1)Cn1c2ccc(I)cc2c2cc(I)ccc21` (configuration not stated), for which the Toxicity in assay [1], in assay [2] and in assay [3] was 4 in each case.

`CN1CCN(c2ccc(Nc3c4ccccc4nc4ccccc34)cc2)CC1`: the Toxicity in assay [1] was 4; in assay [2], 4; in assay [3] it was 2.

With `CCCC(c1nnnn1C1CCCCC1)N1CCN(C(=O)c2ccco2)CC1.Cl` (configuration not stated), the Toxicity in assay [1], in assay [2] and in assay [3] was 0 in each case.

Consider `CCCOCc1cc(CN2CCN(c3cccc(Cl)c3)CC2)c(O)c2ncccc12`, for which the Toxicity in assay [1] came out at 4; in assay [2] it was 4; in assay [3] it was 3.

In the case of `O=C1CC(O)(C(F)(F)C(F)(F)F)Oc2ccccc21` (configuration not stated), the Toxicity worked out at 0 in assay [1], 1 in assay [2] and 0 in assay [3].

For `COc1ccccc1NC1=C(N2CCCCC2)C(=O)c2ccccc2C1=O`, the Toxicity in assay [1], in assay [2] and in assay [3] was 4 in each case.

Regarding `Clc1ccc2[nH]c3c(NCCCN4CCOCC4)ncnc3c2c1`, the Toxicity in assay [1], in assay [2] and in assay [3] was 0 in each case.

On to `COc1ccc2nc(N)nc(C)c2c1`, for which the Toxicity in assay [1] was 0; in assay [2], 4; in assay [3], 0.

Take `Cc1ccc(-c2cc3c(SCC(=O)Nc4cc(C(F)(F)F)ccc4Cl)nccn3n2)cc1`: the Toxicity in assay [1], in assay [2] and in assay [3] was 0 in each case.

With `CCCCOC(=O)c1ccc(Nc2cc(C)nc3ccc(OC)cc23)cc1`, the figures for the Toxicity in assay [1], in assay [2] and in assay [3] were 0, 4 and 2, respectively.

As to `CCOc1ccc(-n2cc(-c3ccccc3)c3c(SCc4cc(C)ccc4C)ncnc32)cc1`, the Toxicity in assay [1], in assay [2] and in assay [3] was 0 each time.

With `O=C1c2ccccc2-c2nnc(-c3ccc(Br)cc3)cc21`, the Toxicity in assay [1], in assay [2] and in assay [3] was 0 throughout.

Turning to `O=C(Nc1ccc(C23CC4CC(CC(c5ccccc5)(C4)C2)C3)cc1)c1cccs1`, the Toxicity in assay [1], in assay [2] and in assay [3] was 2 throughout.

`CN(C)c1ccc(C(O)(c2ccc(N(C)C)cc2)c2ccc(N(C)C)cc2)cc1` [METHYLROSANILINE]: the Toxicity in assay [1] is given as 2; in assay [2], 4; in assay [3], 2.

As to `Cc1ccc(C)c(Cn2c(N3CCC(C(=O)NCc4cccs4)CC3)nc3ccccc32)c1`, the Toxicity in assay [1], in assay [2] and in assay [3] was 0 throughout.

With `COc1ccc(C2C(C(=O)Nc3cccc(OC)c3)c3ccccc3C(=O)N2C2CCCCC2)cc1` (configuration not stated), the Toxicity in assay [1], in assay [2] and in assay [3] was 0 throughout.

For the compound `CCOc1ccc(-c2nc(NC(=O)c3cccc(S(C)(=O)=O)c3)sc2C)cc1`, the Toxicity in assay [1], in assay [2] and in assay [3] was 0 in each case.

As for `COc1cc2cc(C(=O)Nc3ccccc3)c(N)nc2cc1OC`, the Toxicity is 0 in assay [1], 2 in assay [2] and 0 in assay [3].

With `FC(F)(F)c1ccc(Nc2nnnc3ccccc23)cc1`, the Toxicity came to 0 in assay [1], 0 in assay [2] and 1 in assay [3].

Consider `CN1CCN(c2nc(Nc3ccc(O)cc3)nc3ccccc23)CC1.Cl`, for which the Toxicity in assay [1], in assay [2] and in assay [3] was 0 each time.

`COc1ccc(C(=O)C2CC2c2ccc(Cl)cc2)cc1` (configuration not stated): the Toxicity in assay [1], in assay [2] and in assay [3] was 0 each time.

As to `COc1cc(-c2nc(-c3ccccc3)c(-c3ccccc3)[nH]2)cc(OC)c1O`, the Toxicity in assay [1], in assay [2] and in assay [3] was 0 each time.

Regarding `CCCCCCn1c(=N)n(CC(O)COc2cccc(C)c2)c2ccccc21.Cl` (configuration not stated), the Toxicity in assay [1], in assay [2] and in assay [3] was 4 in each case.

As to `CCN(CC)CCCNc1ccnc2cc3ccccc3cc12`, the Toxicity in assay [1], in assay [2] and in assay [3] was 2 in each case.

Take `COc1ccc(CN2CCCC(C(=O)c3ccc(C(F)(F)F)cc3)C2)c(O)c1` (configuration not stated): the Toxicity in assay [1], in assay [2] and in assay [3] was 0 throughout.

For the compound `CCn1c(CN2CCN(Cc3ccccc3)CC2)nc2cc(NC(=O)c3cccs3)ccc21`, the Toxicity in assay [1], in assay [2] and in assay [3] was 0 each time.

With `CCOc1ccc(N2C(N)=NC(N)=NC2(C)C)cc1.Cl`, the Toxicity in assay [1], in assay [2] and in assay [3] was 0 throughout.

As to `FC(F)(F)c1cccc(Nc2nc3ccccc3nc2Nc2cccc(C(F)(F)F)c2)c1`, the Toxicity was found to be 4 in assay [1], 4 in assay [2] and 3 in assay [3].

Turning to `OC(CNCC1CCCO1)Cn1c2ccc(Cl)cc2c2cc(Cl)ccc21` (configuration not stated), the Toxicity in assay [1], in assay [2] and in assay [3] was 0 in each case.

For the compound `Cc1cc(N(C)C)nc(Nc2ccc(NC(=O)Nc3ccccc3)cc2)n1`, the Toxicity in assay [1] is recorded as 3; in assay [2], 3; in assay [3], 0.

As for `CCOc1ccc(Nc2c3ccccc3nc3ccccc23)cc1.Cl`, the Toxicity amounted to 3 in assay [1], 4 in assay [2] and 2 in assay [3].

Regarding `Cc1ccc(N2C3c4ccccc4N(S(=O)(=O)c4ccc(C)cc4)C2c2ccccc2N3S(=O)(=O)c2ccc(C)cc2)cc1`, the Toxicity in assay [1], in assay [2] and in assay [3] was 0 in each case.

With `CC(C)CCNCC(O)Cn1c2ccccc2c2ccccc21.Cl` (configuration not stated), the figures for the Toxicity in assay [1], in assay [2] and in assay [3] were 4, 4 and 2, respectively.

With `Cc1ccc(-c2cc3c(nn2)-c2ccccc2C3=O)cc1`, the Toxicity in assay [1], in assay [2] and in assay [3] was 0 each time.

On to `COc1cc(OC)cc(N2C(=O)N(Cc3ccc(C(C)(C)C)cc3)c3ccccc3S2(=O)=O)c1`, for which the Toxicity in assay [1], in assay [2] and in assay [3] was 0 each time.

With `Cc1cc(NC(=O)C2c3ccccc3C(=O)N(CC(C)C)C2c2cccs2)no1` (configuration not stated), the Toxicity in assay [1], in assay [2] and in assay [3] was 0 in each case.

Turning to `Br.Cc1ccc(C)c(-c2csc(Nc3ccc(C)c(C)c3)n2)c1`, the Toxicity is reported as 1 in assay [1], 0 in assay [2] and 0 in assay [3].

For `COc1ccc2c(c1)OC(O)(C(F)(F)C(F)(F)F)CC2=O` (configuration not stated), the Toxicity in assay [1], in assay [2] and in assay [3] was 0 each time.

`CC1=C(CC(=O)c2cccc([N+](=O)[O-])c2)C(=O)c2ccccc2C1=O`: the Toxicity is reported as 2 in assay [1], 2 in assay [2] and 0 in assay [3].

In the case of `Cc1sc(NC(=O)c2ccccc2)c(C(c2cccs2)N2CCN(c3ccccc3)CC2)c1C` (configuration not stated), the Toxicity in assay [1], in assay [2] and in assay [3] was 0 throughout.

`COc1ccc(N2CCN(C(CNC(=O)CC(C)(C)C)c3ccc4c(c3)OCO4)CC2)cc1` (configuration not stated): the Toxicity in assay [1], in assay [2] and in assay [3] was 0 each time.

Take `c1ccc(-c2ccc(-c3nc4ccccc4[nH]3)cc2)cc1`: the Toxicity in assay [1], in assay [2] and in assay [3] was 0 throughout.

Take `Cc1ccc2cc3c(N)c4c(C)ccc(C)c4nc3nc2c1`: the Toxicity in assay [1], in assay [2] and in assay [3] was 0 each time.

Regarding `CCCc1cc(O)c2c3c(c(=O)oc2c1)CN(C)CC3`, the Toxicity in assay [1], in assay [2] and in assay [3] was 0 in each case.

Take `Cc1ccc(C(=O)c2oc3ccc4c(C)cc(=O)oc4c3c2C)cc1`: the Toxicity in assay [1], in assay [2] and in assay [3] was 0 in each case.

`O=C(Nc1ccc(-c2nc3cc4ccccc4cc3[nH]2)cc1)c1cccc(Br)c1`: the Toxicity is listed as 0 in assay [1], 2 in assay [2] and 0 in assay [3].

For the compound `Cc1cc(Nc2ccc(Cl)cc2)n2nc(C(F)(F)F)nc2n1`, the Toxicity in assay [1], in assay [2] and in assay [3] was 0 in each case.

For the origin of these results see ChEMBL document CHEMBL2363022, “Malaria Box Schistosomiasis Screening Data” (2013).
